This note sets out measurements from paper PMC4125160, “Neurotoxicity and Mode of Action of N, N-Diethyl-Meta-Toluamide (DEET)” (PLoS ONE, 2014).

Read-outs that look alike come from different tables or passages of the source. Bounds are passed on as bounds.

Test [1] concerns the target T1, Aedes aegypti AChE (AeAChE) (Aedes aegypti, UniProt Q6A2E2).
T1 construct: Homogenate enzymes were prepared from groups of ten non-blood fed adult female mosquitoes; from tissue; host or cells: whole adult female mosquitoes, supernatant of homogenate
Put plainly: AChE inhibition, Ellman assay. The class given is biochemical. The text has this: (§1) In vitro biochemical assays utilized five acetylcholinesterase (AChE) enzymes. Recombinant human AChE (hAChE) was purchased from a commercial source (lyophilized powder, Sigma C1682, St. Louis, MO, USA). Homogenates to prepare Anopheles gambiae AChE (AgAChE) were obtained from the wild type G3 strain and the resistant AKRON strain (BEI Resources; http://www.beiresources.org/). AKRON mosquitoes (from Benin and donated by M. Akogbeto) have both knockdown resistance (kdr) to pyrethroids (L1014F sodium channel mutation) and the G119S AChE mutation (ace-1R), which confers resistance to carbamates, [15]. Both strains were cultured in the Emerging Pathogens Institute, University of Florida, Gainesville, FL, USA from eggs provided by the Center for Disease Control, Atlanta, GA, USA. Homogenates were also used to prepare Aedes aegypti AChE (AeAChE) from mosquitoes provided by the CMAVE, USDA-ARS, Gainesville, FL, USA; Musca domestica AChE (MdAChE) from flies cultured in the Department of Entomology and Nematology, Medical Entomology Laboratory, University of Florida, Gainesville, FL, USA); and Drosophila melanogaster AChE (DmAChE) from flies (Oregon-R strain) cultured in the Emerging Pathogens Institute, University of Florida, Gainesville, FL, USA. Homogenate enzymes were prepared from groups of ten non-blood fed adult female mosquitoes, five whole bodied Drosophila, or three Musca heads homogenized in 1 mL of ice-cold sodium phosphate buffer (0.1 M sodium phosphate, pH 7.8) with an electric motor driven glass tissue homogenizer. The homogenate was centrifuged at 5000×g using a Sorvall Fresco refrigerated centrifuge at 4 °C for 5 minutes. The supernatant was used as the enzyme source, and all enzyme preparations contained 0.3% (v/v) triton X-100 and 1 mg/ml BSA. Prior to use, the recombinant human enzyme was diluted 500-fold into sodium phosphate buffer containing triton X-100 and 1 mg/ml BSA.
(§2) Inhibition of AChE was determined using the Ellman assay and was based on the method outlined in Carlier et al.. Briefly, enzyme solution (10 µL) was added to each well of a 96-well micro assay plate, along with 20 µL of inhibitor in DMSO/saline suspension, and 150 µL of sodium phosphate buffer. Final concentration of DMSO was 0.1% in all incubations. The plate was incubated at 25 °C for ten minutes. Ellman assay reagents, acetylthiocholine iodide (0.4 mM, final concentration) and 5,5′-dithiobis-(2-nitro)benzoic acid (0.3 mM, final concentration), were prepared fresh and 20 µL was added to the enzyme to initiate the reaction.
For orientation: In Ellman's method for cholinesterases, released thiocholine reacts with DTNB.

In test [2] the target is T2, Anopheles gambiae AChE (AgAChE), wild type G3 strain (Anopheles gambiae, UniProt Q869C3).
T2 construct: Homogenate enzymes were prepared from groups of ten non-blood fed adult female mosquitoes; from tissue; host or cells: whole adult female mosquitoes, G3 strain, supernatant of homogenate
Put plainly: AChE inhibition, Ellman assay. The class given is biochemical.
Source text: as §1, §2

In test [3] the target is T3, Drosophila melanogaster AChE (DmAChE) (Drosophila melanogaster, UniProt P07140).
T3 construct: five whole bodied Drosophila, or three Musca heads homogenized; from tissue; host or cells: whole Drosophila (Oregon-R), supernatant of homogenate
Nature of the test: AChE inhibition, Ellman assay. The class given is biochemical.
Source text: as §1, §2

Test [4] concerns housefly larval central nervous system. Nature of the test: Neurophysiological recordings of CNS nerve discharge in housefly larvae. Further details: species or system Musca domestica. The settings on record: for EC50: Musca domestica. As for the experimental part: Neurophysiological recordings were performed on the central and peripheral nervous systems of larval Musca domestica. Glass pipette electrodes were pulled from borosilicate glass capillaries on a P-1000 Flaming/Brown micropipette puller (Sutter Instrument, Novato CA, USA). For CNS recordings, it was first excised from the larvae and placed in a separate dish with physiological saline (200 µL) containing: 157 mM NaCl, 3 mM KCl, 2 mM CaCl2, and 4 mM HEPES, pH = 7.25. The CNS was manually transected posterior to the cerebral lobes to disrupt the blood-brain barrier and enhance chemical penetration. Any convenient peripheral nerve trunks were pulled into a recording suction electrode. Amplification and digitization of descending electrical activity originating from the CNS were converted on-line into a rate plot, expressed in Hz (MacLab analog to digital converter hardware and LabChart 7 software, ADInstruments, Colorado Springs, CO, USA). […] After a baseline was established, the CNS preparation was directly exposed to test compound by adding 200 µL of solution to the bath containing 200 µL of saline. The final concentration of solvent in the bath was 0.1% DMSO. Each concentration was recorded for 3–5 min prior to the addition of the next drug concentration. […] Each drug concentration was replicated 3-5 times.

The target of test [5] is T4, Recombinant human AChE (hAChE) (Homo sapiens, UniProt P22303).
T4 construct: purchased Sigma C1682
Put plainly: AChE inhibition, Ellman assay. It counts as biochemical. The settings on record: mean, n = 3; read-out: IC50 (95% CI).
Source text: as §1
as §2, with “reaction. Changes in absorbance were recorded by a DYNEX Triad spectrophotometer (DYNEX Technologies, Chantilly, VA, USA) at 405 nm. Enzyme concentrations used were within the linear range, therefore eliminating the need for protein quantification.” for “reaction.”

Test [6] addresses T5, AKRON AgAChE (G119S AChE mutation) (Anopheles gambiae, UniProt Q869C3, G280S).
T5 construct: Homogenate enzymes were prepared from groups of ten non-blood fed adult female mosquitoes; from tissue; host or cells: whole adult female mosquitoes, AKRON strain, supernatant of homogenate
Nature of the test: AChE inhibition, Ellman assay. It counts as biochemical.
Source text: as §1
as §2, with “reaction. Changes in absorbance were recorded by a DYNEX Triad spectrophotometer (DYNEX Technologies, Chantilly, VA, USA) at 405 nm. Enzyme concentrations used were within the linear range, therefore eliminating the need for protein quantification.” for “reaction.”

In test [7] the target is Musca domestica AChE (MdAChE) (Musca domestica, UniProt Q7YWJ9). Put plainly: AChE inhibition, Ellman assay. It counts as biochemical.
Source text: as §1
as §2, with “reaction. Changes in absorbance were recorded by a DYNEX Triad spectrophotometer (DYNEX Technologies, Chantilly, VA, USA) at 405 nm. Enzyme concentrations used were within the linear range, therefore eliminating the need for protein quantification.” for “reaction.”

The mark [8] stands for this setting: mean, n = 3, read-out: IC50 (95% CI).

The term IC50 denotes the concentration at which inhibition is half-maximal. A word on the EC50: it is the concentration that produces a half-maximal response. Regarding `CNC(=O)Oc1ccccc1OC(C)C` [propoxur], the IC50 in test [1] was 0.37 µM; in test [2], 0.447 µM; in test [3], 0.084 µM; in test [5], 1.44 µM; in test [6], above 100 µM; in test [7] (read-out: IC50 (95% CI); mean, n = 3), 0.13 µM. The EC50 in test [4] (Fig. 3C, read-out: EC50 for increasing spike frequency in the CNS) was 0.344 µM. The “fold more potent than the IC50 value of DEET to MdAChE” value in test [7] (mean IC50) is 40,000 fold.
With `CCN(CC)C(=O)c1cccc(C)c1` [DEET, N, N-diethyl-meta-toluamide], the “sensitivity of enzyme in words” value in test [1] (concentrations up to 10 mM) and in test [2] (concentrations up to 10 mM) was “completely insensitive” in each case. Besides, the IC50 was above 10000 µM in test [1] (setting [8]); above 10000 µM in test [2] (setting [8]); 10000 µM in test [3] (setting [8]); 12000 µM in test [5]; above 10000 µM in test [6]; 6000 µM in test [7] (mean, n = 3; read-out: IC50 (95% CI)). Moreover, in test [4], the “threshold concentration for neuroexcitation” value is listed as “about 50 µM”. In addition, the EC50 in test [4] (abstract, read-out: EC50, excitatory effects) worked out at 120 µM.
